Measured values from paper PMC8000760, “Potential Effect of Pseudevernia furfuracea (L.) Zopf Extract and Metabolite Physodic Acid on Tumour Microenvironment Modulation in MCF-10A Cells” (Biomolecules, 2021).

Experiments:
pSmad2/3 in BJ-5ta = test: Western blot of phospho-Smad2/3 in TGF-β-stimulated fibroblasts; assay type: cell-based; conditions: TGF-β-stimulated BJ-5ta, time-dose manner
Procedure: (§1) The MCF-10A and BJ-5ta cells were seeded and cultivated for 24 h in a complete medium. One day after seeding, 30 ng/mL of TGF-β was added and cultivated for 7 days (d). TGF-β was added to induce epithelial–mesenchymal transition in tested cell lines. Lichen extract P. furfuracea (L.) Zopf and its metabolite physodic acid were added at time 0 h and then incubated for 24, 48 and 72 h for various analyses, as described in Figure 1.
(§2) Proteins isolated from MCF-10A and BJ-5ta cell lysates were determined by the Pierce® BCA Protein Assay Kit (Thermo Scientific, Rockford, IL, United States), using bovine serum albumin (BSA) as the standard, and measured by an automated Cytation™ 3 Cell Imaging Multi-Mode Reader (Biotek) at a wavelength of 570 nm. Proteins were separated on SDS-PAA gel (12%) at 100 V for 2 h and then transferred to a polyvinylidene difluoride (PVDF) membrane using the iBlot dry blotting system (Thermo Scientific, Rockford, IL, United States). […] After incubation, the membrane was again washed in TBS-Tween (3 × 5 min), and the expression of the protein was detected using a chemiluminescent ECL substrate (Thermo Fisher Scientific) and MF-ChemiBIS 2.0 Imaging System (DNR BIO-Imaging Systems, Jerusalem, Israel). The detected band was then analysed densitometrically using the Image Studio Lite software (LI-COR Biosciences, Lincoln, NE, USA). […]

BJ-5ta = test: BrdU cell proliferation assay; assay type: cell-based; conditions: 72 h
Procedure: The MCF-10A (5 × 10^3/well), BJ-5ta (5 × 10^3/well) and HUVEC cells (4 × 10^3/well) were plated in a 96-well plate in 80 μL suitable medium. HUVECs were seeded onto a gelatine-coated plate. After 24 h, cells were treated with the range of concentration 10–100 μg/mL for 72 h (MCF-10A, BJ-5ta), or in the presence or absence of 25 ng/mL of VEGF for 48 h (HUVECs). After 48 h (MCF-10A, BJ-5ta) or 24 h (HUVECs), BrdU labelling solution was added into cells and incubated for another 24 h at 37 °C, followed by fixation and incubation with anti-BrdU peroxidase conjugate solution for an additional 1.5 h at room temperature (RT). Then, cells were washed with washing buffer PBS and incubated with substrate solution TMB for 5 to 30 min according to colour intensity. Finally, we added stop solution (1 M H2SO4) and incorporated BrdU was detected with an automated CytationTM 3 Cell Imaging Multi-Mode Reader at 450 nm (reference wavelength: 690 nm). Three independent experiments were performed at different intervals.

Slug in BJ-5ta = test: Western blot of Slug in TGF-β-stimulated fibroblasts; assay type: cell-based; conditions: 72 h treatment
Procedure: as §1, §2

MCF-10A cells = test: Flow cytometry cell cycle phase distribution; assay type: cell-based, human
Procedure: as §1
The MCF-10A cells (1 × 10^4/well) were seeded in Petri dishes and stimulated with […] TGF-β for 7 days. […] After detaching, using Trypsin/EDTA, cells were harvested and pelleted by centrifugation at 1200 rpm for 5 min. Pellet was re-suspended in PBS and divided for a particular analysis. Cells were stained prior to analyses with E-Cadherin Mouse mAb (Alexa Fluor 488 conjugate) or N-cadherin Rabbit mAb (Alexa Fluor 647 conjugate) (Cell Signalling) for 15 min at RT in the dark. For the cell cycle analyses, cells were re-suspended in staining solution (final concentration 0.1% Triton X-100, 0.5 mg/mL ribonuclease A and 0.025 mg/mL propidium iodide (PI)), and incubated in the dark at RT for 30 min. All samples were analysed using a FACS Calibur flow cytometer (Becton Dickinson, San Jose, CA, USA). The IgG isotype control checking was performed for every used antibody.

E-cadherin in BJ-5ta = test: Western blot of E-cadherin in TGF-β-stimulated fibroblasts; assay type: cell-based; conditions: TGF-β-stimulated BJ-5ta, 48 and 72 h
Procedure: as §1, §2

[1] = test system: chorioallantoic membrane (CAM) of fertilised quail eggs; test: Ex ovo chorioallantoic membrane (CAM) assay; assay type: in vivo, Coturnix coturnix japonica
Procedure: Fertilised quail eggs (Coturnix coturnix japonica; 20 specimens) were obtained from the certified farm (Mala Ida, Slovakia) and incubated horizontally in a forced draft constant humidity incubator at 38.2 ± 0.5 °C and 58% relative humidity. After 56 h, the eggs were sterilised by wiping the surface lightly with 70% ethanol and allowed to dry. An incision was made in the middle ventral part of the shell, using sterile scissors, and the embryos were deposited in six-well tissue culture dishes (Sigma-Aldrich), which were then returned to the humidified incubator for an additional 4 days, until the start of the experiments. At day 7 (96 h after day 3), a sterilised silicone ring (10 mm inner diameter) was laid on CAM surface for the deposition of testing solution. […] At least 10 eggs were used in every experimental group. The photographs of CAM blood vessels’ formation inside of rings were obtained using a stereomicroscope Olympus SZ61 (Tokyo, Japan) and digital camera PROMICRA 3.2 (Prague, Czech Republic). Subsequently, photographs were pre-processed using QuickPHOTO MICRO microscope software (Promicra; Prague, Czech Republic). Representative images were then analysed using Wimasis Image Analysis automatic software to quantify the angiogenesis.

[2] = 24 h, IC10, in the presence of 30 ng/mL TGF-β
[3] = 24 h, treatment alone (IC10 of PSE/Phy, or TGF-β 30 ng/mL)
[4] = 48 h, IC10, in the presence of 30 ng/mL TGF-β
[5] = 48 h, treatment alone (IC10 of PSE/Phy, or TGF-β 30 ng/mL)
[6] = 72 h, IC10, in the presence of 30 ng/mL TGF-β
[7] = 72 h, treatment alone (IC10 of PSE/Phy, or TGF-β 30 ng/mL)
[8] = VEGF-stimulated (25 ng/mL), IC10, 72 h, compared to VEGF alone

SMILES: CCCCCC(=O)Cc1cc(O)cc2c1C(=O)Oc1cc(O)c(C(=O)O)c(CCCCC)c1O2 [Phy, physodic acid]
- phosphorylation levels of Smad2 and Smad3 (pSmad2/3) (pSmad2/3 in BJ-5ta): decreased
- IC10 (BJ-5ta): 62.88 ± 0.90 µM
- IC50 (BJ-5ta): 164 ± 4.5 µM
- Slug protein (Slug in BJ-5ta): downregulation
- G1 cell cycle phase distribution (MCF-10A cells; [2]): 73.45 ± 0.69
- G2/M cell cycle phase distribution (MCF-10A cells; [2]): 13.25 ± 2.08
- S cell cycle phase distribution (MCF-10A cells; [2]): 12.20 ± 2.69
- Sub G0 cell cycle phase distribution (MCF-10A cells; [2]): 1.10 ± 0.07
- G1 cell cycle phase distribution (MCF-10A cells; [3]): 73.25 ± 0.37
- G2/M cell cycle phase distribution (MCF-10A cells; [3]): 13.85 ± 0.61
- S cell cycle phase distribution (MCF-10A cells; [3]): 12.05 ± 0.86
- Sub G0 cell cycle phase distribution (MCF-10A cells; [3]): 0.86 ± 0.12
- G1 cell cycle phase distribution (MCF-10A cells; [4]): 89.05 ± 1.18^Δ
- G2/M cell cycle phase distribution (MCF-10A cells; [4]): 5.78 ± 1.16
- S cell cycle phase distribution (MCF-10A cells; [4]): 3.36 ± 0.27
- Sub G0 cell cycle phase distribution (MCF-10A cells; [4]): 1.82 ± 0.24
- G1 cell cycle phase distribution (MCF-10A cells; [5]): 88.15 ± 0.53
- G2/M cell cycle phase distribution (MCF-10A cells; [5]): 5.06 ± 1.00
- S cell cycle phase distribution (MCF-10A cells; [5]): 4.23 ± 0.48
- Sub G0 cell cycle phase distribution (MCF-10A cells; [5]): 2.54 ± 0.04
- G1 cell cycle phase distribution (MCF-10A cells; [6]): 89.75 ± 0.86^Δ
- G2/M cell cycle phase distribution (MCF-10A cells; [6]): 4.34 ± 1.27^Δ
- S cell cycle phase distribution (MCF-10A cells; [6]): 3.14 ± 0.52
- Sub G0 cell cycle phase distribution (MCF-10A cells; [6]): 2.77 ± 0.94
- G1 cell cycle phase distribution (MCF-10A cells; [7]): 88.50 ± 1.14
- G2/M cell cycle phase distribution (MCF-10A cells; [7]): 3.99 ± 0.80
- S cell cycle phase distribution (MCF-10A cells; [7]): 5.45 ± 2.26
- Sub G0 cell cycle phase distribution (MCF-10A cells; [7]): 2.06 ± 0.35
- cell cycle phase distribution versus control or TGF-β alone (MCF-10A cells; IC10, absence or presence of TGF-β 30 ng/mL, 24, 48 and 72 h): no significant differences
- expression of epithelial marker E-cadherin (E-cadherin in BJ-5ta): did not significantly change
- total branching points [1, 8]: significant decrease
- total vascular network length [1, 8]: significant decrease
- vascular density [1, 8]: significant decrease
- total branching points ([1]; absence of VEGF): not significantly affected
- vessel density ([1]; non-stimulated group (absence of VEGF)): significant change
